Data as given in US7829591B2, “Flavanone compound and uses thereof” (Pokka Corporation, priority 2003, dated 2010).

Legend:
[1] = β-carotene fading test; assay type: biochemical; details: 20 μM in reaction liquid, 60° C. for 60 minutes, absorbance 470 nm; average ± SD of three runs
Method: β-carotene will fade due to the reaction of linoleic acid peroxide, which is produced by the autoxidation of linoleic acid, with a double bond in β-carotene. This phenomenon was utilized so as to determine the antioxidant activity of each of Compounds 1 to 4 and the like. That is, first of all, 2 ml of a 200 mg/ml solution of Tween-40 in chloroform, 0.4 ml of a 100 mg/ml solution of linoleic acid in chloroform, and 3 ml of a 0.1 mg/ml solution of β-carotene in chloroform were mixed, and thereafter the solvent was removed by using a nitrogen gas. Subsequently, 100 ml of distilled water was added thereto, and adequately stirred to obtain an emulsion. To 3 ml of this emulsion, ethanol was added to completely dissolve the solute in the solvent. Thereafter, each of Compounds 1 to 4 was dissolved in ethanol so as to prepare a sample solution having a concentration of 1.2 mM. 50 μl of the sample solution was mixed with the above emulsion wherein the solute had been completely dissolved so as to prepare a reaction liquid (or a sample reaction liquid). Then the concentration of each of Compounds 1 to 4 in the reaction liquid was 20 μM. The reaction liquid was incubated at 60° C. for 60 minutes. Then the absorbance of each of the reaction liquid before the incubation and the reaction liquid after the incubation was determined at 470 nm. Furthermore, BHT, α-tocopherol, or eriodictyol was used in place of Compounds 1 to 4 so as to determine the absorbance of the reaction liquid before and after incubation according to a similar procedure to the above-mentioned one. In addition, as a control, a reaction liquid (or a control reaction liquid) wherein no sample solution was contained was prepared so as to determine the absorbance of the reaction liquid before and after incubation according to a similar procedure to the above-mentioned one. The antioxidant activity (%) of each of the materials was calculated using the following calculation formula 2. Incidentally, each of values shown in Table 1 is the average value and standard deviation of values obtained from three runs. (Antioxidant Activity)=[{(Fading Rate of Control)−(Fading Rate of Sample Solution)}/(Fading Rate of Control)]×100 Calculation Formula 2
It should be noted that in the calculation formula 2, “Fading Rate of Control” is the natural logarithm of a value which is acquired by dividing the absorbance of the control reaction liquid before incubation by the absorbance of the control reaction liquid after incubation and further by dividing the resultant value by 60; and “Fading Rate of Sample Solution” is the natural logarithm of a value which is acquired by dividing the absorbance of the sample reaction liquid before incubation by the absorbance of the sample reaction liquid after incubation and further by dividing the resultant value by 60.

[2] = DPPH radical scavenging activity test; assay type: biochemical; details: 25 μM sample solution in ethanol, 1 h in dark, absorbance 517 nm; average ± SD of three runs
Method: DPPH (α,α-diphenyl-β-picrylhydradil) is a purple stable radical having a maximum absorption at 517 nm, which is converted into colorless hydrazine by gaining hydrogen. This color reaction was utilized so as to determine the radical scavenging activity of each of Compounds 1 to 4 and the like. That is, each of Compounds 1 to 4 was dissolved in ethanol to prepare 3 ml of a sample solution having a concentration of 25 μM. Thereafter, to each of the resultant sample solutions, 0.75 ml of a 0.5 mM DPPH solution (whose solvent was ethanol) was added and stirred, and reacted in a dark place for one hour, followed by the determination of an absorbance at 517 nm. Furthermore, in place of Compounds 1 to 4, BHT (butylated hydroxytoluene), α-tocopherol or eriodictyol was used so as to determine an absorbance according to a similar procedure to the above. Besides, instead of the above sample solutions, ethanol was used as a control so as to determine an absorbance according to a similar procedure to the above. Then the radical scavenging activity (%) of each of the materials was calculated using the following calculation formula 1. Incidentally, each of values shown in Table 1 is the average value and standard deviation of values obtained from three runs. (Radical Scavenging Activity)=[{(Absorbance of Control)−(Absorbance of Sample Solution)}/(Absorbance of Control)]×100 Calculation Formula 1

[3] = test system: breast cancer cells (MCF-7); assay: Breast cancer cell proliferation-inhibition test; assay type: cell-based; details: 0.1 nM estradiol, Control 1 at 0 day = 1
Method: When breast cancer cells (MCF-7) are cultured, if estradiol (or 17β-estradiol) having a cell-proliferation accelerating action, is added thereto, the proliferation of breast cancer cells can be simply promoted in a short period. This phenomenon was utilized so as to examine the effect of each of Compounds 1 to 4 and the like on the proliferation inhibition of breast cancer cells. That is, first of all, each of Compounds 1 to 4 was diluted with dimethyl sulfoxide to prepare a sample solution. Thereafter, 2×10^3 of MCF-7 were inoculated in each well of a 96-well plate, and estradiol and the sample solution were added thereto after 4 hours. Estradiol was added to each compartment so that the final concentration of estradiol can be 0.1 nM, and the final concentration of the sample solution can be 0.2 μM, 2 μM, or 20 μM. After incubation for a predetermined period of time (three or five days), each of the media was replaced with a new medium, and an enzyme solution (Cell counting Kit-8: Wako) was added to the new medium in an amount of 10% of the new medium. After maintained the medium in an incubator at a temperature of 37° C. for two hours, the absorbance of the medium was determined at a wavelength of 450 nm (a reference wave length of 630 nm) by means of a spectrophotometer so as to quantify the number of living cells in each compartment.
As for the compartment whose incubation period is predetermined to be five days, on the third day of the incubation, the medium was replaced with a new medium, and thereafter, estradiol and a sample solution were added to the new medium, and the incubation was continued till fifth day. As for the compartment whose incubation period is predetermined to be 0 day, at four hours after the cells were inoculated, an enzyme solution was added to the medium. The medium was maintained in an incubator at a temperature of 37° C. for two hours, followed by determining the absorbance.
Instead of Compounds 1 to 4, eriodictyol was used to determine the absorbance according to a similar procedure to the above-mentioned one, and thus the number of living cells in each compartment was quantified. Furthermore, Control 1 to which neither estradiol nor a sample had been added was used to determine the absorbance according to a similar procedure to the above-mentioned one, and thus the number of living cells in each compartment was quantified, while Control 2 to which no sample had been added was used to determine the absorbance according to a similar procedure to the above-mentioned one, and thus the number of living cells in each compartment was quantified.
When it is assumed that the number of living cells of Control 1 as quantified after a zero-day incubation period is 1, the relative value of living cells as quantified in each of the runs mentioned above is shown in Table 2. Incidentally, each of values shown in Table 2 is the average value and standard deviation of values obtained from eight wells.

Structure (SMILES)	Antioxidant Activity (%) from β-carotene Fading Test [1] [%]	Radical Scavenging Activity (%) from DPPH Radical Scavenging Activity Test [2] [%]	Relative Value of Living Cells ([3]; 0.2 μM sample, after 3-days incubation)	Relative Value of Living Cells ([3]; 0.2 μM sample, after 5-days incubation)	Relative Value of Living Cells ([3]; 0.2 μM sample, on 0-day incubation, mean ± SD of eight wells)	Relative Value of Living Cells ([3]; 2 μM sample, after 3-days incubation)	Relative Value of Living Cells ([3]; 2 μM sample, after 5-days incubation)	Relative Value of Living Cells ([3]; 2 μM sample, on 0-day incubation)	Relative Value of Living Cells ([3]; 20 μM sample, after 3-days incubation)	Relative Value of Living Cells ([3]; 20 μM sample, after 5-days incubation)	Relative Value of Living Cells ([3]; 20 μM sample, on 0-day incubation)
Cc1cc(C(C)(C)C)c(O)c(C(C)(C)C)c1 [BHT, butylated hydroxytoluene, reference compound]	85.02 ± 1.89	28.51 ± 7.48									
O=C1C[C@@H](c2ccc(O)c(O)c2)Oc2cc(O)cc(O)c21 [Eriodictyol, eriodictyol, reference compound]	81.47 ± 2.48	68.82 ± 1.12	2.88 ± 0.22	7.33 ± 0.60	0.96 ± 0.04	2.90 ± 0.13	7.16 ± 0.36	0.98 ± 0.07	2.54 ± 0.30	5.13 ± 0.62	1.01 ± 0.05
Cc1c(C)c2c(c(C)c1O)CC[C@@](C)(CCC[C@H](C)CCC[C@H](C)CCCC(C)C)O2 [α-tocopherol, reference compound]	93.00 ± 0.73	58.87 ± 1.24									
